Assays:
A549 = settings: as reported in Peters et al. 2013; cited from earlier work
H460 = test: Mice xenograft model, tumor growth inhibition; assay type: in vivo; settings: oral 500 mg/kg, TIWK
Source text: (§1) A novel, orally bioavailable nucleoside analogue, RX-3117, is a prodrug activated intracellularly by Uridine Cytidine Kinase 2 (UCK2) that is thought to be expressed predominantly in tumor tissue. RX-3117 is currently being evaluated in a Phase Ib/IIa multi-center, open-label clinical study in patients with advanced pancreatic and bladder cancer. In this study, the relation between UCK2 tissue protein expression and the efficacy of RX-3117 in mice xenograft models and also UCK2 protein expression in a panel of human cancer tissues relative to normal tissue were studied.
(§2) The immunoblotting protein level of UCK2 normalized to beta-actin and corresponding tumor growth inhibition (oral RX-3117 dose of 500 mg/kg, TIWK) were 57 and 67% in MiaPaCa2, 30 and −5% in BxPC3, 199 and 92% in Colo-205, 21 and 90% in Caki-1, 2 and 39% in A549, and 146 and 79% in H460, respectively. […] Average H-Scores of UCK2 in cancer tissues vs. normal tissues were 104 vs. 9 in lung, 97 vs. 20 in bladder, 67 vs. 41 in pancreas and 39 vs. 21 in colon, respectively.

MiaPaCa2 = test: Mice xenograft model, tumor growth inhibition; assay type: in vivo; settings: oral 500 mg/kg, TIWK
Source text: as §1, §2

Caki-1 = test: Mice xenograft model, tumor growth inhibition; assay type: in vivo; settings: Caki-1 xenograft, oral 500 mg/kg, TIWK
Source text: as §1, §2

SW1573/G- = test: Cell cycle distribution by flow cytometry (PI); assay type: cell-based, human
Method: The effect of RX-3117 on cell cycle regulation and cell death in human non-small cell lung cancer (NSCLC) cell lines A549 (adenocarcinoma), SW1573 (alveolar carcinoma) and SW1573/G- (SW1573 cell line resistant to gemcitabine) and H460 (large cell carcinoma) was assessed. The A549 and H460 cell lines were obtained from American Type Culture Collection (Manassas, Va., USA). The SW1573 cell line, obtained from Dr. Johan van Rijn (see Keiser et al., Cancer Research, 49:2988-2993 (1989)), also served as the parental cell line for SW1573/G-. A549, SW1573, and SW1573/G- and H460 were kept in exponential growth in T25 flasks (Greiner Bio-One GmbH, Frickenhausen, Germany) and cultured in Dulbecco's minimal essential medium (DMEM) or RPMI 1640 (A549) supplemented with 10% heat-inactivated fetal bovine serum (FBS) 1% streptomycin and penicillin 20 mM HEPES and maintained in 37° C. water saturated atmospheres of 5% CO2. […] The cells stained with the PI solution were analyzed by FACSCalibur™ (BD Biosciences, Mount View, Calif., USA). Data was analyzed with CellQuest™ Pro software.
Cell cycle distribution and apoptosis were analyzed by plating cells in flat bottom 6 well plates (Greiner Bio-One GmbH, Frickenhausen, Germany) at the density of 5,000 cells and allowed to attach for 24 h. […] Subsequently, samples were analyzed using FACSCalibur (BD Biosciences, Mount View, Calif., USA). […]

SW1573 spheroids = test: Spheroid assay, radiosensitizing effect; assay type: cell-based, human; settings: SW1573 spheres
Method: (§3) The NSCLC cell lines A549 and SW1573 were plated in low attachment 24 well plates (Corning Incorporated, Corning, N.Y.) at a density of 100,000 cells/well and allowed to form spheroids. After three days, single spheroids were transferred to new 24 well low attachment plates (one spheroid/well). Immediately after transfer treatment was started, for A549 and SW1573 cells 1 μM RX-3117 was combined with fractionated 2 Gy irradiation (5 days single 2 Gy dose). Pictures were taken on day 0 (before irradiation) and after 3, 6, 9, and 15 days using a phase contrast microscope (LeicaDMI300B Universal Grab 6.3 software, Digital Cell Imaging Labs). The measurements were taken by ImageJ software (ImageJ 1.45s, Wayne Rasband, National Institutes of Health, Bethesda, Md.) for spheroid volume calculation (V=4/3π(D/2)^3) as described earlier by Galvani et al. (Galvani E, Giovannetti E, Saccani F, Cavazzoni A, Leon L G, Dekker H, Alfieri R, Carmi C, Mor M, Ardizzoni A, Petronini P G and Peters G J: Molecular mechanisms underlying the antitumor activity of 3-aminopropanamide irreversible inhibitors of the epidermal growth factor receptor in non-small cell lung cancer. Neoplasia 15: 61-72, 2013).

A549 spheroids = test: Spheroid assay, radiosensitizing effect; assay type: cell-based, human
Method: as §3

Nc1ccn([C@@H]2C(F)=C(CO)[C@@H](O)[C@H]2O)c(=O)n1 [RX-3117, 4-amino-1-((1S,4R,5S)-2-fluoro-4,5-dihydroxy-3-hydroxymethyl-cyclopent-2-enyl)-1H-pyrimidin-2-one]
IC50 (A549): 8.3 µM | tumor growth inhibition (H460): 79% | tumor growth inhibition (MiaPaCa2): 67% | tumor growth inhibition (Caki-1): 90% | accumulation of cells in the G1 phase (SW1573/G-; 1 μM, 24 hour exposure): induced accumulation | accumulation of cells in the S-phase (SW1573/G-; 5×IC50, 24 and 48 hours): induced the accumulation | spheroid volume, combination with radiotherapy (SW1573 spheroids; 1 μM plus 2 Gy 5 days): the effect was enhanced with the combination | spheroid volume, RX-3117 alone (SW1573 spheroids; 1 μM, 15 days): highly affected | spheroid volume growth, combination with irradiation (A549 spheroids; A549, 1 μM plus 5 days irradiation with 2 Gy): enhanced the effect | spheroid volume growth, RX-3117 alone (A549 spheroids; A549, 1 μM, 15 days): only a small effect

Source: patent US10278971B2, “Fluorocyclopentenylcytosine methods of use” (Rexahn Pharmaceuticals, Inc., priority 2015, dated 2019)
